Test results: patent US20250188069A1, “COMPOUNDS AND METHODS FOR DEGRADING CASEIN KINASE 1 ALPHA” (PIN THERAPEUTICS, INC., priority 2022, published 2025)
Where a name gives a salt, the structure may show the parent alone.

Experiments:
MV-4-11 cells = assay: AML cell viability assay (RealTime-Glo); assay type: cell-based; conditions: Homo sapiens, MV4-11; IC50 class; MV-4-11 cells, RealTime-Glo after 44 hrs of treatment (TABLE 3); read-out: Cell viability classification
CK1α = CK1α (Homo sapiens, UniProt P48729+Q96SW2); assay: CK1α degradation, flow cytometry in MV4-11 cells; assay type: cell-based; parameters: CK1α levels were determined in MV-4-11 cells using Jess (Protein Simple); host or cells: MV-4-11; conditions: % reduction of CK1α compared to DMSO, MV4-11 cells at 316 nM for 16 hours, read-out: CK1α degradation classification
Method: MV-4-11 cells were obtained from ATCC and grown in IMDM supplemented with 10% FBS. The cells were maintained at 37° C. under 5% CO2.
Compounds of the present disclosure were added to cells (final DMSO concentration of 0.5%) and incubated for 16 hours. CK1α level was determined in MV4-11 cells using flow cytometry (Luminex, Guava EasyCyte Plus). Briefly, cells were prepared with sequential 10% formalin and 70% methanol fixation. […] GuavaSoft Incyte software was used to analyse the flow cytometry data. Protein levels relative to DMSO are calculated for CK1α.
The efficacy of CK1α degradation of other part of compounds of the present disclosure was determined by treating MV4-11 cells at […] (Final DMSO concentration of 0.5%) for 16 hours. Protein levels relative to DMSO are calculated for CK1α.
Protein levels relative to DMSO are calculated for CK1α.

CK1α, sequence (P48729 whole entry): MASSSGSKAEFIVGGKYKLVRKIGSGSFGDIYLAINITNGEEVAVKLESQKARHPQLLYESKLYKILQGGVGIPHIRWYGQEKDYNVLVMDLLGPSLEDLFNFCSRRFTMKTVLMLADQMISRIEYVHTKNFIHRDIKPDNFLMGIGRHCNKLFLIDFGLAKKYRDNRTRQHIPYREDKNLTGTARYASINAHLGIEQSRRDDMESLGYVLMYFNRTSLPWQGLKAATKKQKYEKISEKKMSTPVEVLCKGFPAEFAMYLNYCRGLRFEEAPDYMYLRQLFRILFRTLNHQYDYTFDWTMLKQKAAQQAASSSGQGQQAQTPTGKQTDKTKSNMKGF
CK1α, sequence (Q96SW2 whole entry): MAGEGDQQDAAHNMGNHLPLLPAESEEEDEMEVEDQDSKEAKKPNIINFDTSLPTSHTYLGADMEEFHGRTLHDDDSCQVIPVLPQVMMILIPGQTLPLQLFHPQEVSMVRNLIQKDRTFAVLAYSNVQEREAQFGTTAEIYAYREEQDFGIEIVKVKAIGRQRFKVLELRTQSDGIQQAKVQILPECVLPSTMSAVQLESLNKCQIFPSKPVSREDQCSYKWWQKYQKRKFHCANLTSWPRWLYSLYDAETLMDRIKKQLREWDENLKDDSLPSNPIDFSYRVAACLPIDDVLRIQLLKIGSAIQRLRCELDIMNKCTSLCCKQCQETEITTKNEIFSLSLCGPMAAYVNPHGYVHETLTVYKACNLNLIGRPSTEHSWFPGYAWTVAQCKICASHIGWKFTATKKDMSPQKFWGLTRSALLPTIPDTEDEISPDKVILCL
CK1α, sequence (Q16531 whole entry partner): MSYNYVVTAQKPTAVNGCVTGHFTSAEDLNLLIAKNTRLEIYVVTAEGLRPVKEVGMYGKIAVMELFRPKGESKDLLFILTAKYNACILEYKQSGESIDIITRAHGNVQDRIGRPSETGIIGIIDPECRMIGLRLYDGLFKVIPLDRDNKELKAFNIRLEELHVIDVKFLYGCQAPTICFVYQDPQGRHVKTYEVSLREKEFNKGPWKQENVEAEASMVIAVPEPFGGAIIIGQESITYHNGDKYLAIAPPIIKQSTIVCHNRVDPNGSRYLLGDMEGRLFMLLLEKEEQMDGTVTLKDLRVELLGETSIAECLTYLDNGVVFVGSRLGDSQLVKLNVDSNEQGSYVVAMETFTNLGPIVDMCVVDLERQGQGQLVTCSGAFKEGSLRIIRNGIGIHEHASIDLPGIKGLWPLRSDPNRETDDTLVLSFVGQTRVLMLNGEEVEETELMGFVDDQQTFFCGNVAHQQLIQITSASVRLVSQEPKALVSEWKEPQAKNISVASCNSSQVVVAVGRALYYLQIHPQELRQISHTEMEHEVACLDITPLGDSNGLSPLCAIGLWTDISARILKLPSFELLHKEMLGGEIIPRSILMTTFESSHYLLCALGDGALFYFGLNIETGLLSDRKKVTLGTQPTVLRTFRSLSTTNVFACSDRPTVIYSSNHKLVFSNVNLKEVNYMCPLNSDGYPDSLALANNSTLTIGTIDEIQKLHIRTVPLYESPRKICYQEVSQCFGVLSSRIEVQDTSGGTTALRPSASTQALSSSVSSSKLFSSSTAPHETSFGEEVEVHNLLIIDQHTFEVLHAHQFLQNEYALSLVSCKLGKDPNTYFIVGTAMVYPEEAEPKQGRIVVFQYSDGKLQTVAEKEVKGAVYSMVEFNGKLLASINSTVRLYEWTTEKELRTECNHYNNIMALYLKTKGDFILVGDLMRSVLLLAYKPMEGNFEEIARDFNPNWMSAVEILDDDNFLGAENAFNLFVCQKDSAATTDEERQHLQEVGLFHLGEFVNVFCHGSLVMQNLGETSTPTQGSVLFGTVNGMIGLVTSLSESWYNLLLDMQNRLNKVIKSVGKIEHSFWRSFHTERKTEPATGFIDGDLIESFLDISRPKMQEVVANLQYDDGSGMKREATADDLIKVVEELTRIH

IC50 (MV-4-11 cells) | Dmax at 0.316 µM (CK1α) | SMILES
100 to 1000 nM | > 75% | CC(C)CN(c1cccc2c1CN(C1CCC(=O)NC1=O)C2=O)[C@H]1CC[C@H](N)CC1 (stereo partly drawn) [Compound 236, 3-(4-(((1r,4r)-4-aminocyclohexyl)(isobutyl)amino)-1-oxoisoindolin-2-yl)piperidine-2,6-dione. HCl]
< 100 nM | > 75% | N[C@H]1CC[C@H](N(CCC2CC2)c2cccc3c2CN(C2CCC(=O)NC2=O)C3=O)CC1 (stereo partly drawn) [Compound 237, 3-(4-(((1r,4r)-4-aminocyclohexyl)(2-cyclopropylethyl)amino)-1-oxoisoindolin-2-yl)piperidine-2,6-dione, HCl]
< 100 nM | > 75% | CC(C)CCN(c1cccc2c1CN(C1CCC(=O)NC1=O)C2=O)[C@H]1CC[C@H](N)CC1 (stereo partly drawn) [Compound 238, 3-(4-(((1r,4r)-4-aminocyclohexyl)(isopentyl)amino)-1-oxoisoindolin-2-yl)piperidine-2,6-dione hydrochloride]
> 1000 nM | < 50% | N[C@H]1CC[C@H](N(CCC2CCNCC2)c2cccc3c2CN(C2CCC(=O)NC2=O)C3=O)CC1 (stereo partly drawn) [Compound 239, 3-(4-(((1r,4r)-4-aminocyclohexyl) (2-(piperidin-4-yl)ethyl)amino)-1-oxoisoindolin-2-yl) piperidine-2,6-dione, 2HCl]
100 to 1000 nM | < 50% | N[C@H]1CC[C@H](N(CCC2CCOCC2)c2cccc3c2CN(C2CCC(=O)NC2=O)C3=O)CC1 (stereo partly drawn) [Compound 240, 3-(4-(((1r,4r)-4-aminocyclohexyl)(2-(tetrahydro-2H-pyran-4-yl)ethyl)amino)-1-oxoisoindolin-2-yl)piperidine-2,6-dione hydrochloride]
> 1000 nM | < 50% | N[C@H]1CC[C@H](N(CCCC2CCNCC2)c2cccc3c2CN(C2CCC(=O)NC2=O)C3=O)CC1 (stereo partly drawn) [Compound 241, 3-(4-(((1r,4r)-4-aminocyclohexyl)(3-(piperidin-4-yl)propyl)amino)-1-oxoisoindolin-2-yl)piperidine-2,6-dione, 2HCl]
< 100 nM | > 75% | N[C@H]1CC[C@H](N(CCCC2CCOCC2)c2cccc3c2CN(C2CCC(=O)NC2=O)C3=O)CC1 (stereo partly drawn) [Compound 242, 3-(4-(((1r,4r)-4-aminocyclohexyl)(3-(tetrahydro-2H-pyran-4-yl)propyl)amino)-1-oxoisoindolin-2-yl)piperidine-2,6-dione hydrochloride]
> 1000 nM | < 50% | N[C@H]1CC[C@H](N(CCN2CCNCC2)c2cccc3c2CN(C2CCC(=O)NC2=O)C3=O)CC1 (stereo partly drawn) [Compound 243, 3-(4-(((1r,4r)-4-aminocyclohexyl)(2-(piperazin-1-yl)ethyl)amino)-1-oxoisoindolin-2-yl)piperidine-2,6-dione, 3HCl]
> 1000 nM | < 50% | N[C@H]1CC[C@H](N(CCN2CCOCC2)c2cccc3c2CN(C2CCC(=O)NC2=O)C3=O)CC1 (stereo partly drawn) [Compound 244, 3-(4-(((1r,4r)-4-aminocyclohexyl)(2-morpholinoethyl)amino)-1-oxoisoindolin-2-yl)piperidine-2,6-dione, 2HCl]
> 1000 nM | < 50% | N[C@H]1CC[C@H](N(CCCN2CCNCC2)c2cccc3c2CN(C2CCC(=O)NC2=O)C3=O)CC1 (stereo partly drawn) [Compound 245, 3-(4-(((1r,4r)-4-aminocyclohexyl)(3-(piperazin-1-yl)propyl)amino)-1-oxoisoindolin-2-yl)piperidine-2,6-dione, 3HCl]
> 1000 nM | < 50% | N[C@H]1CC[C@H](N(CCCN2CCOCC2)c2cccc3c2CN(C2CCC(=O)NC2=O)C3=O)CC1 (stereo partly drawn) [Compound 246, 3-(4-(((1r,4r)-4-aminocyclohexyl)(3-morpholinopropyl)amino)-1-oxoisoindolin-2-yl)piperidine-2,6-dione dihydrochloride]
100 to 1000 nM | 50 to 75% | CCCCCN(CCC1(CN)CCCCC1)c1cccc2c1CN(C1CCC(=O)NC1=O)C2=O (stereo not drawn) [Compound 255, 3-(4-((2-(1-(aminomethyl)cyclohexyl)ethyl) (pentyl)amino)-1-oxoisoindolin-2-yl) piperidine-2,6-dione, Formic Acid]
< 100 nM | > 75% | CC(C)(C)CCN(c1cccc2c1CN(C1CCC(=O)NC1=O)C2=O)[C@H]1CC[C@H](N)CC1 (stereo partly drawn) [Compound 267, 3-(4-(((1R,4R)-4-aminocyclohexyl)(3,3-dimethylbutyl)amino)-1-oxoisoindolin-2-yl)piperidine-2,6-dione hydrochloride]
< 100 nM | > 75% | CC(C)(C)CCCN(c1cccc2c1CN(C1CCC(=O)NC1=O)C2=O)[C@H]1CC[C@H](N)CC1 (stereo partly drawn) [Compound 268, 3-(4-(((1r,4r)-4-aminocyclohexyl)(4,4-dimethylpentyl)amino)-1-oxoisoindolin-2-yl)piperidine-2,6-dione, HCl]
> 1000 nM | 50 to 75% | CC(=O)N[C@H]1CC[C@H](N(CCCCN)c2cccc3c2CN(C2CCC(=O)NC2=O)C3=O)CC1 (stereo partly drawn) [Compound 273, N-((1r,4r)-4-((4-aminobutyl)(2-(2,6-dioxopiperidin-3-yl)-1-oxoisoindolin-4-yl)amino)cyclohexyl)acetamide, 2HCl]
< 100 nM | > 75% | CCCCCN(c1cccc2c1CN(C1CCC(=O)NC1=O)C2=O)[C@H]1CC[C@H](C(N)=O)CC1 (stereo partly drawn) [Compound 305, (1R,4R)-4-((2-(2,6-dioxopiperidin-3-yl)-1-oxoisoindolin-4-yl)(pentyl)amino)cyclohexane-1-carboxamide]
100 to 1000 nM | > 75% | CCCCCN(c1cccc2c1CN(C1CCC(=O)NC1=O)C2=O)[C@H]1CC[C@H](C(=O)NC)CC1 (stereo partly drawn) [Compound 306, (1R,4R)-4-((2-(2,6-dioxopiperidin-3-yl)-1-oxoisoindolin-4-yl)(pentyl)amino)-N-methylcyclohexane-1-carboxamide]
< 100 nM | > 75% | CCCCCN(c1cccc2c1CN(C1CCC(=O)NC1=O)C2=O)[C@H]1CC[C@@H](C(N)=O)CC1 (stereo partly drawn) [Compound 307, (1S,4S)-4-((2-(2,6-dioxopiperidin-3-yl)-1-oxoisoindolin-4-yl)(pentyl)amino)cyclohexane-1-carboxamide]
< 100 nM | > 75% | CCCCCN(c1cccc2c1CN(C1CCC(=O)NC1=O)C2=O)[C@H]1CC[C@@H](C(=O)NC)CC1 (stereo partly drawn) [Compound 308, (1S,4S)-4-((2-(2,6-dioxopiperidin-3-yl)-1-oxoisoindolin-4-yl)(pentyl)amino)-N-methylcyclohexane-1-carboxamide]
< 100 nM | > 75% | CCCCCN(c1cccc2c1CN(C1CCC(=O)NC1=O)C2=O)[C@H]1CC[C@H](NCC)CC1 (stereo partly drawn) [Compound 309, 3-(4-(((1r,4r)-4-(ethylamino)cyclohexyl)(pentyl)amino)-1-oxoisoindolin-2-yl)piperidine-2,6-dione, HCl]
< 100 nM | 50 to 75% | CCCCCN(c1cccc2c1CN(C1CCC(=O)NC1=O)C2=O)[C@H]1CC[C@H](NC(C)C)CC1 (stereo partly drawn) [Compound 310, 3-(4-(((1r,4r)-4-(isopropylamino)cyclohexyl)(pentyl)amino)-1-oxoisoindolin-2-yl)piperidine-2,6-dione, HCl]
< 100 nM | > 75% | CCCCCN(c1cccc2c1CN(C1CCC(=O)NC1=O)C2=O)[C@H]1CC[C@H](NCC(C)C)CC1 (stereo partly drawn) [Compound 311, 3-(4-(((1r,4r)-4-(isobutylamino)cyclohexyl)(pentyl)amino)-1-oxoisoindolin-2-yl)piperidine-2,6-dione, HCl]
< 100 nM | > 75% | CCCCCN(c1cccc2c1CN(C1CCC(=O)NC1=O)C2=O)[C@H]1CC[C@H](NCCC)CC1 (stereo partly drawn) [Compound 312, 3-(1-oxo-4-(pentyl((1r,4r)-4-(propylamino)cyclohexyl)amino)isoindolin-2-yl)piperidine-2,6-dione, HCl]
< 100 nM | > 75% | CCCCCN(c1cccc2c1CN(C1CCC(=O)NC1=O)C2=O)[C@H]1CC[C@H](NCC2CC2)CC1 (stereo partly drawn) [Compound 313, 3-(4-(((1R,4R)-4-((cyclopropylmethyl)amino)cyclohexyl)(pentyl)amino)-1-oxoisoindolin-2-yl)piperidine-2,6-dione hydrochloride]
< 100 nM | > 75% | CCCCCN(c1cccc2c1CN(C1CCC(=O)NC1=O)C2=O)[C@@H]1CC[C@@H](CN)C1 (stereo partly drawn) [Compound 325, 3-(4-(((1R,3R)-3-(aminomethyl)cyclopentyl)(pentyl)amino)-1-oxoisoindolin-2-yl)piperidine-2,6-dione HCl salt]
< 100 nM | > 75% | NC[C@@H]1CC[C@@H](N(CCC2CC2)c2cccc3c2CN(C2CCC(=O)NC2=O)C3=O)C1 (stereo partly drawn) [Compound 325A, 3-(4-(((1R,3R)-3-(aminomethyl)cyclopentyl)(2-cyclopropylethyl)amino)-1-oxoisoindolin-2-yl)piperidine-2,6-dione, HCl]
< 100 nM | > 75% | CCCCCN(c1cccc2c1CN(C1CCC(=O)NC1=O)C2=O)[C@@H]1CC[C@H](CN)C1 (stereo partly drawn) [Compound 326, 3-(4-(((1R,3S)-3-(aminomethyl)cyclopentyl)(pentyl)amino)-1-oxoisoindolin-2-yl)piperidine-2,6-dione, Formic Acid salt]
